The compounds below were run against T1, mGluR5 receptor (pig) (Sus scrofa, UniProt I3LUI7) (assay: Inhibition of [3H]-MPEP binding in the mGluR5 receptor binding assay (pig brain homogenate)). Details: 5 nM [3H]-MPEP, 60 min, room temperature, read-out: IC50 mGluR5 receptor (pig) [3H]-MPEP bonding.
T1 construct: 450 μg of protein from brain homogenate are incubated; from tissue; host or cells: pig brain halves without medulla, cerebellum and pons (homogenate, differential centrifugation)
T1 sequence (I3LUI7 19-1212): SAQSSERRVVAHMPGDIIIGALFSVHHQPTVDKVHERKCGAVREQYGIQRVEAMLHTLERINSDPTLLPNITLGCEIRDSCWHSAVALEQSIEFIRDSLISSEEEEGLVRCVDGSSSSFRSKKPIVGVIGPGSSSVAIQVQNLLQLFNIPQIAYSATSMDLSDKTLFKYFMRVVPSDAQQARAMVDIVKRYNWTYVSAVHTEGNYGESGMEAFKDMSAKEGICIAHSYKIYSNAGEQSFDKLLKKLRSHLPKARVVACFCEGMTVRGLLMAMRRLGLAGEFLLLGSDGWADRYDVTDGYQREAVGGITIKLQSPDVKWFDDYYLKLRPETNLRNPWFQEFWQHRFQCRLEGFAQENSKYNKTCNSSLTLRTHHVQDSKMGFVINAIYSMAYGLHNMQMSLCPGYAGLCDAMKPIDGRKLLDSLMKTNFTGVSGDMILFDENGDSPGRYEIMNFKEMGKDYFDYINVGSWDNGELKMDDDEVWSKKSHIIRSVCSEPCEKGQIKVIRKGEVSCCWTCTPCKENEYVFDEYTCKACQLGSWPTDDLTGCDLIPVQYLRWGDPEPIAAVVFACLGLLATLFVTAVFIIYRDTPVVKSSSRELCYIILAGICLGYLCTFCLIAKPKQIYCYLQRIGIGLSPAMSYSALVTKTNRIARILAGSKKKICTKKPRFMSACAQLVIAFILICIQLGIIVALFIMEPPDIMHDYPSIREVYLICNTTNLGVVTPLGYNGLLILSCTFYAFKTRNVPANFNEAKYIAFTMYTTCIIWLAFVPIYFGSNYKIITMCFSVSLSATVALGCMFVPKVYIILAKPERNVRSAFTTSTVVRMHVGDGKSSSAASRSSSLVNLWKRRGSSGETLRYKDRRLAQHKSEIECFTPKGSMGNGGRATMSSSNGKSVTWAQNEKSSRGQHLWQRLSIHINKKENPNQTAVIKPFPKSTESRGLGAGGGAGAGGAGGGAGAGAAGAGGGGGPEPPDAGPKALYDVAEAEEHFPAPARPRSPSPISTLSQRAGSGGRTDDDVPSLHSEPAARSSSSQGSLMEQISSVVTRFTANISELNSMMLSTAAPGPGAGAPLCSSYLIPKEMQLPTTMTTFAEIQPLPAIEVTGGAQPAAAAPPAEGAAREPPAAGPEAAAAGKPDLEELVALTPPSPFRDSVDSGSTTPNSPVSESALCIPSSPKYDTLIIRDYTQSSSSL
Method: I. Method for Determining the Inhibition of the [^3H]-MPEP Binding in the mGluR5 Receptor Binding Assay
Pig brain homogenate is produced by the homogenisation (Polytron PT 3000, Kinematica AG, 10,000 rpm for 90 seconds) of pig brain halves without medulla, cerebellum and pons, in a buffer with pH 8.0 (30 mM Hepes, Sigma, order no. H3375+1 “Complete Tablet” to 100 ml, Roche Diagnostics, order no. 1836145) in the ratio 1:20 (brain weight/volume) and differential centrifuging at 900×g and 40,000×g. 450 μg of protein from brain homogenate are incubated in 250 μl incubation preparation in 96-well microtiter plates, for 60 minutes at room temperature in a buffer (as above), along with 5 nM ^3[H]-MPEP (Tocris, order no. […]
Subsequently, the preparations are filtered on unifilter plates with fibreglass filter mats (Perkin Elmer, order no. 6005177) using a Brandel Cell Harvester (Brandel, TYP Robotic 9600) and subsequently washed with buffer (as above) 3 times with 250 μl per sample in each case. The filter plates are subsequently dried for 60 min at 55° C. Subsequently 30 μl Ultima Gold™ scintillator (Packard Bioscience, order no. 6013159) are added to each well, and after 3 hours the samples are measured with the β-counter (Mikrobeta, Perkin Elmer). The non-specific binding is determined by adding 10 μM MPEP (Tocris, order no. 1212).
CN(CCCN(C)c1nccs1)C(=O)C#Cc1ccccc1 [Example 1] showed an IC50 of 0.99 µM.
Compound O=C(C#Cc1ccccc1)N1CCC(Nc2nccs2)CC1 [Example 2, 4-(thiazol-2-yl-amino)-1-(3-phenyl-propiolyl)piperidine] has an IC50 of 3.04 µM.
Compound O=C(C#Cc1ccccc1)N1CC2CN(c3nccs3)CC2C1 (stereo not drawn) [Example 3, 3-(thiazol-2-yl)-7-(3-phenyl)-propiolyl-3,7-diaza-bicyclo[3.3.0]octane] has an IC50 of 4.46 µM.
CN(c1nccs1)C1CCN(C(=O)C#Cc2ccccc2)CC1 [Example 4, 4-(methyl-thiazol-2-yl-amino)-1-(3-phenyl-propiolyl)piperidine] gave an IC50 of 4.22 µM.
O=C(C#Cc1ccccc1)NC1CCN(c2nccs2)CC1 [Example 5, 3-phenyl-N-(1-(thiazol-2-yl)piperidin-4-yl)propiolamide] showed an IC50 of 7.41 µM.
CN(C(=O)C#Cc1ccccc1)C1CCN(c2nccs2)CC1 [Example 6, N-methyl-3-phenyl-N-(1-(thiazol-2-yl)piperidin-4-yl)propiolamide] showed an IC50 of 1 µM.

Same assay, conditions: 1 μM test compound, 5 nM [3H]-MPEP, 60 min, room temperature, read-out: % inhibition of mGluR5 receptor (pig) [3H]-MPEP bonding at 1 μM
For Cc1csc(N2CCC(NC(=O)C#Cc3ccccc3)CC2)n1 [Example 10, N-(1-(4-methyl-thiazol-2-yl)piperidin-4-yl)-3-phenyl-propiolamide], the inhibition at 1 µM was 36%.
Work on COc1cccc(C#CC(=O)NC2CCN(c3nc(C)cs3)CC2)c1 [Example 11, N-(1-(4-methyl-thiazol-2-yl)piperidin-4-yl)-3-(3-methoxyphenyl)-propiolamide] yielded an inhibition at 1 µM of 26%.
Cc1csc(N2CCC(NC(=O)C#Cc3ccccc3F)CC2)n1 [Example 16, 3-(2-fluoro-phenyl)-N-(1-(4-methyl-thiazol-2-yl)piperidin-4-yl)-propiolamide] was tested, and the inhibition at 1 µM was 22%.
Compound Cc1csc(N2CCC(NC(=O)C#Cc3ccc(C)c(F)c3)CC2)n1 [Example 20, 3-(3-fluoro-4-methyl-phenyl)-N-(1-(4-methyl-thiazol-2-yl)piperidin-4-yl)-propiolamide] has an inhibition at 1 µM of 39%.
With Cc1csc(N2CCC(NC(=O)C#Cc3cccc(C(F)(F)F)c3)CC2)n1 [Example 21, N-(1-(4-methyl-thiazol-2-yl)piperidin-4-yl)-3-(3-trifluoromethyl-phenyl)-propiolamide] the inhibition at 1 µM was 32%.
For Cc1cccc(C#CC(=O)NC2CCN(c3nc(C)cs3)CC2)c1 [Example 22, N-(1-(4-methyl-thiazol-2-yl)piperidin-4-yl)-3-(3-tolyl)-propiolamide], the inhibition at 1 µM was 79%.

From patent US8318774B2, “Compounds involving mGluR5 receptor regulation and methods of making the compounds” (Gruenenthal GmbH, priority 2006, dated 2012)
